The values that follow come from US9446065B2, “Pharmaceutical composition for use in the treatment and/or the prevention of osteoarticular diseases” (BONE THERAPEUTICS, priority 2008, dated 2016).

In general, inhibition refers to the relative decrease from the control value, in per cent.

Several values for one entry are separate records, joined by “and”; a condition that tells them apart may be missing. Equal entries are not always repeated. Where two headings read alike, the source gives them in different places.

Data set [1] relates to PBMC (Peripheral blood mononuclear cells). The experiment in a line: PBMC proliferation assay (3H-thymidine). It is filed as cell-based, human. The settings on record: for Proliferation: HA 200 μg/mL, A2A 5 μM. The procedure:
(§1) The effects of the combination clonidine and hyaluronic acid were tested in a model of Peripheral Blood Mononuclear Cells. In brief, PBMCs (Peripheral blood mononuclear cells) from heparinized venous blood of healthy volunteers were isolated by Ficoll-gradient centrifugation. MNC (Mononuclear cells) were washed three times in PBS and resuspended in RPMI-1640 medium supplemented with 100 U/mL penicillin, 100 μg/mL streptomycin, and 10% heat-inactivated FBS. Cells were seeded at 100.000 cells in 96-wel plate in a total volume of 200 μL/well.
(§2) PBMC, at 100.000 cells/200 μL, were plated in 96-well microtiter plates and stimulated or not 10 μg/mL phytohemagglutinin (PHA). Effects of hyaluronic acid “HA” (200 μg/mL) and p-aminoclonidine “A2A” (5 μM) were tested on PBMC.
Proliferation Assay. The culture was incubated with 1 μCi/mL 3H-thymidine for 24 h before end of culture to measure the proliferation. Then, cells were washed twice with ice-cold PBS and twice with ice-cold 5% trichloroacetic acid (TCA). Finally, cells were lysed with 0.1N NaOH-0.1% Triton-X100. Supernatants were collected and analyzed on a beta-counter in presence of scintillation liquid. Results were done in cpm (“count per minute”=disintegration number of radioactive element observed in series of successive counts of one minute).
(§3) The release of IL-1beta by PBMC and the proliferation of PBMC, induced by PHA stimulation, were set as controls, and compared with the measures for PBMC treated with HA and/or A2A.

Data set [2] concerns IL-1β. As to the kind of experiment: IL-1β detection (ELISA) in PBMC culture. The settings on record: for IL-1β detection: HA 200 μg/mL, A2A 5 μM. It is filed as cell-based, human. As for the experimental part:
as §1, §2
IL-1β detection (By ELISA). Levels of IL-1β from PBMC or culture supernatants were measured by Quantikine ELISA kit (R&D Systems Inc, Minneapolis, USA). The minimum detectable concentration of IL-1β was estimated at 1.0 pg/mL.
as §3
Background: ELISA stands for enzyme-linked immunosorbent assay.

Data set [3] has as its system IL-I beta. The experiment in a line: Inhibition of IL-I beta release by LPS-stimulated TH1 cells. It is filed as cell-based. As for the experimental part: The inhibition of IL-I beta release by alpha-2-adrenergic agonists, induced by LPS stimulation of TH1 cells, is measured under control conditions (dexamethasone).
The test system of data set [4] is acute pain. To be noted: cited from earlier work.
In data set [5] the test system is mono-arthritis symptoms. The arrangement: Reduction in Pain: concentration or dose not given beside the values. To be noted: cited from earlier work.
Where [6] appears, read: PBMC + PHA 10 μg/mL, PBMC + PHA = 100.
The mark [7] stands for this setting: PBMC not stimulated, PBMC + PHA = 100.
Setting [8] is: average data from meta-analyses and/or published studies.

In the case of `Nc1cc(Cl)c(N=C2NCCN2)c(Cl)c1` [A2A, p-aminoclonidine], the “effect on PBMC proliferation, in words” value in data set [1] (PBMC + PHA) is reported as “not able to inhibit PBMC proliferation”. The Proliferation is 16212 cpm in data set [1] (PBMC + PHA 10 μg/mL), 101% in data set [1] (setting [6]), 786 cpm in data set [1] (PBMC not stimulated) and 4.9% in data set [1] (setting [7]). For the same compound, the “effect on IL-1beta secretion, in words” value in data set [2] (PBMC + PHA) is given as “totally suppresses the increase in IL-1beta secretion”. Moreover, the “effect on basal conditions, in words” value in data set [2] (unstimulated PBMC) is recorded as “no effect”.
`Brc1c(NC2=NCCN2)ccc2nccnc12` [Brimonidine]: the “effect on IL-I beta release, in words” value in data set [3] is “no effects”.
For the compound `C[C@@H]1C[C@H]2[C@@H]3CCC4=CC(=O)C=C[C@]4(C)[C@@]3(F)[C@@H](O)C[C@]2(C)[C@@]1(O)C(=O)CO` [Dexamethasone], the inhibition at 0.1 µM in data set [3] (10^−7 M, read-out: inhibition of IL-I beta secretion) was around 65%.
Consider `N=C(N)N/N=C/c1c(Cl)cccc1Cl` [Guanabenz], for which the “effect on IL-I beta release, in words” value in data set [3] is “no effects”.
Consider `Clc1cccc(Cl)c1NC1=NCCN1` [clonidine, N-(2,6-dichlorophenyl)-4,5-dihydro-1H-imidazol-2-amine], for which, in data set [4] (Alagol et al, 2005), the “minimum effect duration in acute pain studies” value is 4 h. Moreover, the “duration of effects in acute pain studies (not to exceed)” value in data set [4] (Gentili et al, 2001) is at most 72 h.
hyaluronic acid [HA]: the “Improvement in Function” value in data set [5] (Arich et al., 2005) is listed as −11%; in data set [5] (Kolarz et al., 2003) it was −23%; in data set [5] (setting [8]), −15%. Besides, the “Reduction in Pain” value in data set [5] (Arich et al., 2005) is listed as 0%; in data set [5] (Kolarz et al., 2003) it was −55%; in data set [5] (Lo et al., 2004), −7%; in data set [5] (Wang et al., 2004) it was −8%; in data set [5] (setting [8]), −10%. The “Reduction in Pain (max effect reported)” value in data set [5] (Arich et al., 2005) is on record as −17%; in data set [5] (Lo et al., 2004), −47%; in data set [5] (Wang et al., 2004), −24%. In addition, the “improvement in function, maximal effect reported in literature” value in data set [5] (Kolarz et al., 2003) was 23%. The “improvement in pain, maximal effect reported in literature” value in data set [5] (Kolarz et al., 2003) is given as 55%. Also, the “Side-Effects (major side effects only)” value in data set [5] (setting [8]) is listed as “None”. Moreover, the benefit on swelling result in data set [5] (literature) is listed as “no reported benefit on swelling”. Further, the “decrease of pain score (VAS) in meta-analyses” value in data set [5] (meta-analyses that reassessed efficacy) is given as at most 15 mm. The “reduction of PBMC proliferation” value in data set [1] (PBMC + PHA) was 2 factor. For the same compound, the Proliferation in data set [1] (PBMC + PHA 10 μg/mL) was 9087 cpm; in data set [1] (setting [6]), 57% and 56%; in data set [1] (PBMC not stimulated) it was 364 cpm; in data set [1] (setting [7]), 2.2%. Also, the “increase of IL-1beta secretion over the stimulated conditions” value in data set [2] (PBMC + PHA) was 3 times. The IL-1β detection in data set [2] (PBMC + PHA 10 μg/mL) was 6394 pg/mL; in data set [2] (setting [6]), 293% and 292%; in data set [2] (PBMC not stimulated), 2095 pg/mL; in data set [2] (setting [7]), 96%.
